Laboratory results published in US9562024B2, “Vortioxetine salt and crystal thereof, their preparation method, pharmaceutical compositions and usage” (HANGZHOU PUSHAI PHARMACEUTICAL TECHNOLOGY CO., LTD, priority 2013, dated 2017).
Where a name gives a salt, the structure may show the parent alone. One block for each compound: values may come before it.

Assays:
Assay type in all cases: physicochemical
[1] = Inventors' studies of the known crystalline forms of vortioxetine hydrobromide of WO2007/144005A1
Source text: In studies, the inventors of the present invention found out that the multiple crystalline forms of vortioxetine hydrobromide disclosed in WO2007/144005A1 have the following disadvantages: […]

[2] = Stability competition test (competitive slurry, XRPD); details: for Stability Competition Test: crystalline form after competitive slurry (XRPD): equal quantities of both forms slurried 7 days in ethanol or water; for Stability competition test: crystalline form after slurry: slurried in water or ethanol
Description: Stability competition test: An equal quantity (250 mg) of the crystalline vortioxetine hemihydrobromide form of the present invention prepared in example 4 and the β Form of vortioxetine hydrobromide prepared in preparation example 2 were respectively added to 3 mL of ethanol or water to produce suspensions. No solvate was formed in ethanol or water. The suspensions were slurried for 7 days at room temperature or at 60° C., and then XRPD characterization analyses were performed.

[3] = Dissolution comparison of sustained-release tablets, Example 144; details: water, 37° C.
Description: The crystalline form of vortioxetine hemihydrobromide of the present invention and the β Form of vortioxetine hydrobromide prepared in preparation example 2 were tableted by the method of example 141 and then subjected to dissolution comparison. Water was used as the dissolution medium. Parameter setting of the dissolution tester: The temperature was 37° C. The rotate speed of the stirring paddle was 50 r/min. Take 3 ml of the dissolution medium out at 0.5, 1, 2, 6 and 12 hours respectively. Each time after sampling, 3 mL of water was added back to the dissolution medium to supplement the volume. The concentration of the dissolution medium at each time point was determined by HPLC.

[4] = Hygroscopicity comparison (DVS isothermal sorption); details: relative humidity range 20%-80%
Description: Dynamic vapor sorption (DVS) data were collected using TA Instruments Q5000 TGA. The instrument control software was Thermal Advantage, and the analytical software was Universal Analysis. Usually, 1-10 mg of the sample was placed in a platinum pan and the weight change of the sample during experiments was recorded. The relative humidity was usually programmed to change from 20% to 80% and then back to 20%, and an isothermal sorption curve could be generated. Depending on specific situations, different sorption and desorption procedures might be used.
Hygroscopicity comparison: DVS isothermal sorption curves were used, and weight changes within the 20%-80% RH range were measured.

[5] = Dissolution of tablets (paddle method, water), Example 140; details: 37° C.
Description: The crystalline form of vortioxetine hemihydrobromide of the present invention, the β Form of vortioxetine hydrobromide prepared in preparation example 2 and the β Form of vortioxetine hydrobromide containing 20% of the crystalline form of vortioxetine hemihydrobromide of the present invention were tableted by the method in example 105 and then subjected to phase stability comparison. Dissolution was determined by reference to the dissolution conditions of Benorilate Tablets described in 2010 Chinese Pharmacopoeia. The paddle method was used with the paddle rotation speed at 50 r/min. 900 mL of water was the dissolution medium. The temperature was 37° C. Take 3 mL of the dissolution medium for sampling at 2, 10, 20, 40 and 60 min respectively. Each time after sampling, 3 mL of water was added back to dissolution medium to supplement the volume. The concentration of the dissolution medium at each time point was measured by HPLC, and the dissolution profile was plotted.

[6] = high-temperature conditions, hydrobromide

- Stability of the crystalline form ([1]; high-humidity conditions): transformed to hydrate
- Stability of the crystalline form [1, 6]: lost ethyl acetate
Structure (SMILES): Cc1ccc(Sc2ccccc2N2CCNCC2)c(C)c1 [ethyl acetate solvate of vortioxetine hydrobromide]

- Stability of the crystalline form [1, 6]: lost water
Structure (SMILES): Cc1ccc(Sc2ccccc2N2CCNCC2)c(C)c1 [hydrate of vortioxetine hydrobromide, vortioxetine hydrobromide]

- Cumulative dissolution ([3]; sustained-release tablets by method of example 141, paddle 50 r/min, 0.5 hours, hydrobromide): 50.0%
- Cumulative dissolution ([3]; sustained-release tablets, 12 hours, hydrobromide): 100.0%
- Hygroscopicity Comparison (weight change) ([4]; listed as the known β Form of vortioxetine hydrobromide, hydrobromide): 0.60%
Structure (SMILES): Cc1ccc(Sc2ccccc2N2CCNCC2)c(C)c1 [the β Form of vortioxetine hydrobromide, 1-[2-(2,4-dimethylphenylsulfanyl)phenyl]piperazine hydrobromide]
- Stability Competition Test: crystalline form after competitive slurry (XRPD) ([2]; 60° C., listed as the known β Form of vortioxetine hydrobromide, hydrobromide): completely transformed into the vortioxetine hemihydrobromide crystalline form of the present invention
- Stability Competition Test: crystalline form after competitive slurry (XRPD) ([2]; room temperature, listed as the known β Form of vortioxetine hydrobromide, hydrobromide): completely transformed into the vortioxetine hemihydrobromide crystalline form of the present invention
- Stability competition test: crystalline form after slurry ([2]; temperature not stated at the place, hydrobromide): transformed to the vortioxetine hemihydrobromide crystalline form of the present invention
- Stability competition test: crystalline form after slurry ([2]; temperature not stated at the place, listed as β Form of vortioxetine hydrobromide, hydrobromide): failed to maintain its original crystalline form
- Stability competition test: crystalline form after slurry ([2]; temperature not stated, listed as the known β Form of vortioxetine hydrobromide, hydrobromide): completely transformed to the crystalline vortioxetine hemihydrobromide of the present invention

- Stability Competition Test: crystalline form after competitive slurry (XRPD) ([2]; 60° C., listed as the vortioxetine hemihydrobromide crystalline form of the present invention, hemihydrobromide): kept unchanged
- Stability Competition Test: crystalline form after competitive slurry (XRPD) ([2]; room temperature, listed as the vortioxetine hemihydrobromide crystalline form of the present invention, hemihydrobromide): invention kept unchanged”
- Stability competition test: crystalline form after slurry ([2]; temperature not stated, hemihydrobromide): keeping its crystalline form unchanged
- Cumulative dissolution ([3]; sustained-release tablets by method of example 141, paddle 50 r/min, 0.5 hours, hemihydrobromide): 8.1%
- Hygroscopicity Comparison (weight change) ([4]; listed as Example 4, hemihydrobromide): 0.28%
- Hygroscopicity Comparison (weight change) ([4]; listed as the vortioxetine hemihydrobromide crystalline form of the present invention, hemihydrobromide): 0.28%
- Cumulative dissolution ([5]; tablets by method of example 105, 900 mL water, paddle 50 r/min, 2 min, hemihydrobromide): 8.2%
- Cumulative dissolution ([5]; tablets, water, 60 min): 100.0%
Structure (SMILES): Cc1ccc(Sc2ccccc2N2CCNCC2)c(C)c1 [vortioxetine hemihydrobromide]

Structure (SMILES): Cc1ccc(Sc2ccccc2N2CCNCC2)c(C)c1 [α Form of vortioxetine hydrobromide, vortioxetine hydrobromide]
- Stability of the crystalline form ([1]; room temperature): transformed to the β Form of vortioxetine hydrobromide
